# Measurements as given in US6440984B1, “Use of aryl-substituted pyrimidines as insecticidal and acaricidal agents” (BASF Aktiengesellschaft, priority 1998, dated 2002).
# Experiments:
# Format in all cases: in vivo
# [1] = test system: Tetranychus Urticae (OP-resistant strain), 2-spotted Spider Mite (TSM); assay: Two-spotted spider mite (TSM) plant-dip test, mortality after 2 days; conditions: rating scale; for pest or weed control at 300 ppm: Tetranychus urticae, 48 h, read-out: TSM AD-FOLIAR 300 (ppm)
# Experimental: (§1) Test solutions are prepared by dissolving the test compound in a 35% acetone in water mixture to give a concentration of 10,000 ppm. Subsequent dilutions are made with water as needed.
# Tetranychus Urticae (OP-resistant strain), 2-spotted Spider Mite (TSM)
# Sieva lima bean plants with primary leaves expanded to 7-8 cm are selected and cut back to one plant per pot. A small piece is cut from an infested leaf taken from the main colony and placed on each leaf of the test plants. This is done about 2 hours before treatment to allow the mites to move over to the test plant to lay eggs. The size of the cut, infested leaf is varied to obtain about 100 mites per leaf. At the time of test treatment, the piece of leaf used to transfer the mites is removed and discarded. The newly-infested plants are dipped in the test solution for 3 seconds with agitation and set in the hood to dry. After 2 days, one leaf is removed and mortality counts are made.
# [2] = test system: Diabrotica Virgifera Virgifera Leconte, 3rd Instar Western Corn Rootworm (WCR); assay: Western corn rootworm (WCR) soil test, mortality at 5 days; conditions: rating scale; for pest or weed control at 50 ppm: Diabrotica virgifera, 120 h, read-out: WCR 2^ND-SOIL 50 (ppm)
# Experimental: Diabrotica Virgifera Virgifera Leconte, 3rd Instar Western Corn Rootworm (WCR) One cc of fine talc is placed in a 30 mL wide-mouth screw-top glass jar. One mL of the appropriate acetone test solution is pipetted onto the talc so as to provide 1.25 mg of active ingredient per jar. The jars are set under a gentle air flow until the acetone is evaporated. The dried talc is loosened, 1 cc of millet seed is added to serve as food for the insects and 25 mL of moist soil is added to each jar. The jar is capped and the contents thoroughly mixed mechanically. Following this, ten 3rd instar rootworms are added to each jar and the jars are loosely capped to allow air exchange for the larvae. The treatments are held for 5 days when mortality counts are made. Missing larvae are presumed dead, since they decompose rapidly and can not be found. The concentrations of active ingredient used in this test correspond approximately to 50 kg/ha.
# [3] = test system: Aphis Fabae, Mixed Instar, Bean Aphid (BA); assay: Bean aphid (BA) foliar spray test, mortality after 2 days; conditions: rating scale; for pest or weed control at 300 ppm: Aphis fabae, 48 h, read-out: BA AD-FOLIAR 300 (ppm)
# Experimental: as §1
# Aphis Fabae, Mixed Instar, Bean Aphid (BA)
# Pots containing single nasturtium plants (Tropaeolum sp.) about 5 cm tall are infested with about 100-200 aphids one day before the test. Each pot is sprayed with the test solution for 2 revolutions of a 4 rpm turntable in a hood. The spray is directed to give complete coverage of the plants and aphids. The sprayed pots are set on their sides on white trays and held for 2 days, following which mortality estimates are made. Essentially the same method is used with respect to cotton aphid (CA).
# [4] = test system: Spodoptera Eridania, 3rd Instar Larvae, Southern Armyworm (SAW); assay: Southern armyworm (SAW) leaf-dip test, observations at 5 days; conditions: Southern Army Worm, rating scale; for pest or weed control at 1000 ppm: Spodoptera eridania, foliar, 120 h, read-out: SAW 2^ND-FOLIAR 1000 (ppm)
# Experimental: as §1
# Spodoptera Eridania, 3rd Instar Larvae, Southern Armyworm (SAW)
# A Sieva lima bean leaf expanded to 7-8 cm in length is dipped in the test solution with agitation for 3 seconds and allowed to dry in a hood. The leaf is then placed in a 100×10 mm petri dish containing a damp filter paper on the bottom and ten 3rd instar caterpillars. At 5 days, observations are made of mortality, reduced feeding, or any interference with normal molting.
compound,measurement,setting,value
FC(F)(F)c1cccc(Oc2nccc(-c3ccc(Cl)cc3)n2)c1 [Compound 2],TSM AD-FOLIAR 300 (ppm),[1],C (C 76-100% kill)
Fc1ccc(Oc2nccc(-c3ccc(Cl)cc3)n2)cc1C(F)(F)F [Compound 4],TSM AD-FOLIAR 300 (ppm),[1],A (A 0-45% kill)
FC(F)(F)c1ccc(Oc2nccc(-c3ccccc3)n2)cc1Cl [Compound 7],WCR 2^ND-SOIL 50 (ppm),[2],C (C 76-100% kill)
CCc1ccc(-c2ccnc(Oc3ccc(F)c(Cl)c3)n2)cc1 [Compound 13],BA AD-FOLIAR 300 (ppm),[3],C (C 76-100% kill)
same,SAW 2^ND-FOLIAR 1000 (ppm),[4],C (C 76-100% kill)
CCc1ccc(-c2ccnc(Oc3cccc(C(F)(F)F)c3)n2)cc1 [Compound 15],BA AD-FOLIAR 300 (ppm),[3],C (C 76-100% kill)
same,TSM AD-FOLIAR 300 (ppm),[1],C (C 76-100% kill)
FC(F)(F)c1cccc(-c2ccnc(Oc3ccc(Cl)c(Cl)c3)n2)c1 [Compound 18],BA AD-FOLIAR 300 (ppm),[3],A (A 0-45% kill)
same,SAW 2^ND-FOLIAR 1000 (ppm),[4],A (A 0-45% kill)
same,TSM AD-FOLIAR 300 (ppm),[1],A (A 0-45% kill)
O=[N+]([O-])c1ccc(Oc2nccc(-c3cccc(C(F)(F)F)c3)n2)cc1C(F)(F)F [Compound 19],BA AD-FOLIAR 300 (ppm),[3],A (A 0-45% kill)
same,WCR 2^ND-SOIL 50 (ppm),[2],C (C 76-100% kill)
FC(F)(F)c1cccc(-c2ccnc(Oc3ccc(Cl)c(Cl)c3)n2)c1 [Compound 20],BA AD-FOLIAR 300 (ppm),[3],B (B 45-75% kill)
same,SAW 2^ND-FOLIAR 1000 (ppm),[4],A (A 0-45% kill)
CC(C)(C)c1ccc(-c2ccnc(Oc3ccc(F)c(C(F)(F)F)c3)n2)cc1 [Compound 24],BA AD-FOLIAR 300 (ppm),[3],A (A 0-45% kill)
same,WCR 2^ND-SOIL 50 (ppm),[2],C (C 76-100% kill)
CC(C)(C)c1ccc(-c2ccnc(Oc3ccc(Cl)c(Cl)c3)n2)cc1 [Compound 27],BA AD-FOLIAR 300 (ppm),[3],B (B 45-75% kill)
same,WCR 2^ND-SOIL 50 (ppm),[2],C (C 76-100% kill)
Fc1ccc(Oc2nccc(-c3ccc(C(F)(F)F)cc3)n2)cc1C(F)(F)F [Compound 29],BA AD-FOLIAR 300 (ppm),[3],A (A 0-45% kill)
same,SAW 2^ND-FOLIAR 1000 (ppm),[4],A (A 0-45% kill)
same,TSM AD-FOLIAR 300 (ppm),[1],B (B 45-75% kill)
FC(F)(F)c1ccc(-c2ccnc(Oc3cccc(C(F)(F)F)c3)n2)cc1 [Compound 30],BA AD-FOLIAR 300 (ppm),[3],A (A 0-45% kill)
same,SAW 2^ND-FOLIAR 1000 (ppm),[4],A (A 0-45% kill)
same,TSM AD-FOLIAR 300 (ppm),[1],B (B 45-75% kill)
COc1ccc(-c2ccnc(Oc3ccc(Cl)c(C(F)(F)F)c3)n2)cc1 [Compound 35],WCR 2^ND-SOIL 50 (ppm),[2],C (C 76-100% kill)
FC(F)(F)Oc1cccc(-c2ccnc(Oc3cc(Cl)cc(Cl)c3)n2)c1 [Compound 41],TSM AD-FOLIAR 300 (ppm),[1],A (A 0-45% kill)
FC(F)(F)Oc1ccc(-c2ccnc(Oc3ccc(Cl)c(C(F)(F)F)c3)n2)cc1 [Compound 46],BA AD-FOLIAR 300 (ppm),[3],B (B 45-75% kill)
same,SAW 2^ND-FOLIAR 1000 (ppm),[4],B (B 45-75% kill)
Fc1ccc(Oc2nccc(-c3ccc(OC(F)(F)F)cc3)n2)cc1C(F)(F)F [Compound 47],BA AD-FOLIAR 300 (ppm),[3],A (A 0-45% kill)
same,SAW 2^ND-FOLIAR 1000 (ppm),[4],A (A 0-45% kill)
same,TSM AD-FOLIAR 300 (ppm),[1],B (B 45-75% kill)
FC(F)(F)Oc1ccc(-c2ccnc(Oc3cccc(C(F)(F)F)c3)n2)cc1 [Compound 48],BA AD-FOLIAR 300 (ppm),[3],B (B 45-75% kill)
same,SAW 2^ND-FOLIAR 1000 (ppm),[4],A (A 0-45% kill)
same,TSM AD-FOLIAR 300 (ppm),[1],B (B 45-75% kill)
O=[N+]([O-])c1ccc(Oc2nccc(-c3ccc(OC(F)(F)F)cc3)n2)cc1C(F)(F)F [Compound 49],BA AD-FOLIAR 300 (ppm),[3],B (B 45-75% kill)
same,TSM AD-FOLIAR 300 (ppm),[1],B (B 45-75% kill)
Fc1cc(-c2ccnc(Oc3ccc(F)c(C(F)(F)F)c3)n2)cc(C(F)(F)F)c1 [Compound 53],BA AD-FOLIAR 300 (ppm),[3],C (C 76-100% kill)
same,SAW 2^ND-FOLIAR 1000 (ppm),[4],A (A 0-45% kill)
Fc1cc(-c2ccnc(Oc3ccccc3)n2)cc(C(F)(F)F)c1 [Compound 54],BA AD-FOLIAR 300 (ppm),[3],C (C 76-100% kill)
same,SAW 2^ND-FOLIAR 1000 (ppm),[4],C (C 76-100% kill)
same,TSM AD-FOLIAR 300 (ppm),[1],C (C 76-100% kill)
Fc1cc(-c2ccnc(Oc3ccc(F)c(Cl)c3)n2)cc(C(F)(F)F)c1 [Compound 56],WCR 2^ND-SOIL 50 (ppm),[2],B (B 45-75% kill)
O=[N+]([O-])c1ccc(Oc2nccc(-c3cc(F)cc(C(F)(F)F)c3)n2)cc1C(F)(F)F [Compound 57],WCR 2^ND-SOIL 50 (ppm),[2],C (C 76-100% kill)
Fc1cc(F)cc(-c2ccnc(Oc3ccc(F)c(C(F)(F)F)c3)n2)c1 [Compound 62],BA AD-FOLIAR 300 (ppm),[3],B (B 45-75% kill)
same,SAW 2^ND-FOLIAR 1000 (ppm),[4],C (C 76-100% kill)
Fc1ccc(Oc2nccc(-c3ccc(F)c(C(F)(F)F)c3)n2)cc1C(F)(F)F [Compound 70],TSM AD-FOLIAR 300 (ppm),[1],B (B 45-75% kill)
"CSc1cc(-c2ccc(Cl)c(Cl)c2)nc(Oc2ccc(F)c(C(F)(F)F)c2)n1 [Compound 85, 2-(3-Trifluoromethyl-4-fluorophenoxy)-4-(3,4-dichlorophenyl)-6-thiomethylpyrimidine]",pest or weed control at 50 ppm,[2],76 to 100%
"CS(=O)(=O)c1cc(-c2ccc(Cl)c(Cl)c2)nc(Oc2ccc(F)c(C(F)(F)F)c2)n1 [Compound 92, 2-(3-trifluoromethyl-4-fluorophenoxy)-4-(3,4-dichlorophenyl)-6-methylsulfonylpyrimidine]",pest or weed control at 50 ppm,[2],76 to 100%
FC(F)(F)c1cccc(Oc2nccc(-c3cccc(C(F)(F)F)c3)n2)c1 [Compound 109],pest or weed control at 300 ppm,[3],45 to 75%
same,pest or weed control at 1000 ppm,[4],0 to 45%
CSc1cc(-c2ccc(Cl)cc2)nc(Oc2ccc(F)c(C(F)(F)F)c2)n1 [Compound 114],pest or weed control at 50 ppm,[2],76 to 100%
Fc1ccc(Oc2nccc(-c3ccc(Cl)cc3)n2)cc1C(F)(F)F [Compound 115],pest or weed control at 1000 ppm,[4],0 to 45%
same,pest or weed control at 300 ppm,[1],45 to 75%
FC(F)(F)c1cccc(Oc2nccc(-c3ccc(Cl)cc3)n2)c1 [Compound 116],pest or weed control at 1000 ppm,[4],0 to 45%
same,pest or weed control at 300 ppm,[1],45 to 75%
FC(F)(F)c1cc(Oc2nccc(-c3ccc(Cl)cc3)n2)ccc1Cl [Compound 122],pest or weed control at 1000 ppm,[4],45 to 75%
CSc1cc(-c2cccc(Cl)c2)nc(Oc2ccc(Cl)c(C(F)(F)F)c2)n1 [Compound 125],WCR 2^ND-SOIL 50 (ppm),[2],B (B 45-75% kill)
FC(F)(F)c1cccc(Oc2nccc(-c3ccccc3)n2)c1 [Compound 128],pest or weed control at 300 ppm,[3],45 to 75%
same,pest or weed control at 300 ppm,[1],76 to 100%
CCc1cnc(Oc2ccc(F)c(C(F)(F)F)c2)nc1-c1ccc(Cl)cc1 [Compound 132],pest or weed control at 300 ppm,[3],76 to 100%
same,pest or weed control at 1000 ppm,[4],0 to 45%
same,pest or weed control at 300 ppm,[1],45 to 75%
Fc1ccc(-c2ccnc(Oc3ccc(C(F)(F)F)c(F)c3)n2)cc1 [Compound 135],pest or weed control at 300 ppm,[3],0 to 45%
same,pest or weed control at 1000 ppm,[4],0 to 45%
same,pest or weed control at 300 ppm,[1],0 to 45%
Fc1ccc(-c2ccnc(Oc3cccc(C(F)(F)F)c3)n2)cc1 [Compound 136],pest or weed control at 1000 ppm,[4],0 to 45%
same,pest or weed control at 300 ppm,[1],0 to 45%
O=[N+]([O-])c1cccc(Oc2nccc(-c3ccc(Cl)cc3)n2)c1 [Compound 140],pest or weed control at 300 ppm,[3],0 to 45%
same,pest or weed control at 300 ppm,[1],45 to 75%
Fc1cccc(Oc2nccc(-c3ccc(Cl)cc3)n2)c1 [Compound 142],pest or weed control at 300 ppm,[1],76 to 100%
Cc1ccc(-c2ccnc(Oc3cccc(C(F)(F)F)c3)n2)cc1 [Compound 147],pest or weed control at 300 ppm,[3],76 to 100%
same,pest or weed control at 300 ppm,[1],76 to 100%
Fc1ccc(Oc2nccc(-c3ccc(Cl)cc3)n2)cc1Cl [Compound 150],pest or weed control at 300 ppm,[3],45 to 75%
same,pest or weed control at 300 ppm,[1],76 to 100%
Fc1ccc(Oc2nccc(-c3ccc(Cl)c(Cl)c3)n2)cc1C(F)(F)F [Compound 155],pest or weed control at 300 ppm,[3],76 to 100%
same,pest or weed control at 1000 ppm,[4],0 to 45%
CCc1cnc(Oc2ccc(F)c(C(F)(F)F)c2)nc1-c1cccc(C(F)(F)F)c1 [Compound 156],pest or weed control at 300 ppm,[3],76 to 100%
same,pest or weed control at 1000 ppm,[4],0 to 45%
same,pest or weed control at 300 ppm,[1],45 to 75%
CCCc1cnc(Oc2cccc(C(F)(F)F)c2)nc1-c1cccc(C(F)(F)F)c1 [Compound 159],pest or weed control at 1000 ppm,[4],0 to 45%
same,pest or weed control at 300 ppm,[1],45 to 75%
FC(F)(F)c1cccc(Oc2nccc(-c3ccc(Br)cc3)n2)c1 [Compound 161],pest or weed control at 300 ppm,[3],76 to 100%
same,pest or weed control at 1000 ppm,[4],0 to 45%
Fc1ccc(Oc2nccc(-c3ccc(Br)cc3)n2)cc1C(F)(F)F [Compound 162],pest or weed control at 1000 ppm,[4],0 to 45%
